Results on five compounds are retold here after US20230027072A1, “IMPROVED METHODS, KITS, COMPOSITIONS AND DOSING REGIMENS FOR THE USE OF HETEROCYCLIC INHIBITORS OF ERK1 AND ERK2” (Asana Biosciences, LLC, priority 2019, published 2023).

Molecules are shown by their SMILES. Where only a bound is given, the exact number is not on record here.

The target of one test is T1, ERK1 (Homo sapiens, UniProt P27361).
T1 construct: purchased Jubilant Biosys
In words: ERK1 HTRF (biochemical) assay. The procedure: (§1) ERK1 and ERK2 HTRF (Biochemical) Assays
(§2) The assays described below employed a homogeneous time resolved fluorescence (HTRF) technique. The compounds were serially diluted by half-log with concentrations ranging from 0.0005 to 10 uM in the assay buffer (50 mM Tris pH-7.5, 1 mM EGTA, 2 mM DTT, 10 mM MgCl2, 0.1% Tween-20) and 20 uL of substrate-ATP mix [1 uM Biotin—LC-Myelin Basic Protein (MBP) derivatized Peptide (Anaspec)-24 uM ATP (Sigma)] was added to each well of the assay plate. Then 10 uL of enzyme mix [25 nM ERK1 or ERK2 (Jubilant Biosys) in assay buffer] was added to each well. The plate was incubated at room temperature for 60 min with shaking. The HTRF mix [625 nM LANCE® Ultra Europium-anti-phospho-MBP (Perkin Elmer) and 2 nM Phycolink® Streptavidin-Allophycocyanin (SA-APC) (Prozyme) in HTRF buffer (50 mM Tris-HCl pH-7.5, 100 mM NaCl, 0.1% BSA, 0.05% Tween20, 0.5 mM EDTA)] was prepared and 75 uL of this mix was added to the HTRF plate. After incubation for 60 min at room temperature, 10 uL of the reaction mixture was transferred to the HTRF assay plate and incubated for 45 min at room temperature with shaking. Plate was read using Pherastar in HTRF mode (excitation 337 nm, emission 665 & 620 nm). The IC50 values (half maximal inhibitory concentration values) were subsequently determined using a sigmoidal dose-response curve (variable slope) in GraphPad Prism® 5 software.
For orientation: Time-resolved FRET reads energy transfer from a long-lived donor to a nearby acceptor.

The test system of test [1] is phosphorylation of RSK1(S380) (the downstream target of ERK1/2). In words: Mechanistic (phospho-RSK1(S380) ELISA) assay in HT-29 cells. The format is cell-based, human. The note with it: Homo sapiens, HT-29, 2 h, 2 h treatment, read-out: Mechanistic Cell Assay RSK1 Phos HT29 IC50. The procedure:
Mechanistic (Phospho-RSK1(5380) ELISA) Assay
HT-29 cells (colorectal carcinoma, B-RafV600E); obtained from ATCC, USA) were seeded (60,000 cells/well) in a 96-well plate and incubated at 37° C./5% CO2 overnight and then treated with desired compound dilutions for 2 h. Medium was removed and cells were rinsed once with ice-cold 1×PBS, then 0.070 mL ice-cold 1× cell lysis buffer containing 1 mM PMSF was added to each well and the plate was incubated on a shaker for 2 h and 30 min at 4° C. The plate was then centrifuged for 20 min (×4000 rpm) at 4° C. and the supernatant was transferred to a new plate. Cell lysates were diluted with sample diluent at a ratio of 1:1. The ELISA was then carried out following the manufacturer's protocol (PathScan® phospho-RSK1(Ser380) Sandwich ELISA Kit, Cell Signaling Technologies). The plate was read at 450 nm within 30 min after adding STOP solution. The IC50 values were subsequently determined using a sigmoidal dose-response curve (variable slope) in GraphPad Prism® 5 software. Compounds of the present disclosure inhibited phosphorylation of RSK1(5380) (the downstream target of ERK1/2) as determined in this assay.

The test system of test [2] is HCT116 (colorectal carcinoma, K Ras G13D) cells. As to the kind of experiment: Cell proliferation (Alamar Blue) assay, HCT116. The format is cell-based, human. The note with it: Homo sapiens, HCT-116, 72 h. The procedure: (§3) Cell Proliferation (Alamar Blue) Assay
(§4) HT-29 (colorectal carcinoma, B-RafV600E), HCT116 (colorectal carcinoma, K Ras G13D), A375 (melanoma, B-RafV600E) and SK-Mel2 (melanoma, NRAS Q61R) cells (obtained from ATCC, USA) were seeded (5000 cells/well) in 96-well tissue culture plate and incubated at 37° C./5% CO2 for 16-24 hours. The cells were then treated with compounds, at concentrations typically from 0.0005 to 10 uM prepared in 3-fold serial dilutions. The plates were then incubated for 72 h at 37° C./5% CO2 in a moist environment. Then Alamar Blue™ reagent (final concentration 1×) was added to each well and incubated for 1-3 h at 37° C./5% CO2. The plates were read on fluorescence reader at 540 nm excitation and 590 nm emission wavelengths. The IC50 values were subsequently determined using a sigmoidal dose-response curve (variable slope) using GraphPad Prism® 5 software. Compounds of the present disclosure caused inhibition of HT-29, HCT116, A375 and SK-Mel2 cell proliferation as determined in these assays.
Background: Alamar Blue is a resazurin reagent that responds to reducing activity.

A further test concerns the target T2, ERK2 (Homo sapiens, UniProt P28482).
T2 construct: purchased Jubilant Biosys
In words: ERK2 HTRF (biochemical) assay. The procedure: as §1, §2

Test [3] concerns HT-29 (colorectal carcinoma, B-RafV600E) cells. In words: Cell proliferation (Alamar Blue) assay, HT-29. The following applies: Homo sapiens, HT-29, 72 h, read-out: Cell Proliferation Assay HT29 IC50. The format is cell-based, human. The method, then: as §3, §4

T2 sequence (P28482 whole entry): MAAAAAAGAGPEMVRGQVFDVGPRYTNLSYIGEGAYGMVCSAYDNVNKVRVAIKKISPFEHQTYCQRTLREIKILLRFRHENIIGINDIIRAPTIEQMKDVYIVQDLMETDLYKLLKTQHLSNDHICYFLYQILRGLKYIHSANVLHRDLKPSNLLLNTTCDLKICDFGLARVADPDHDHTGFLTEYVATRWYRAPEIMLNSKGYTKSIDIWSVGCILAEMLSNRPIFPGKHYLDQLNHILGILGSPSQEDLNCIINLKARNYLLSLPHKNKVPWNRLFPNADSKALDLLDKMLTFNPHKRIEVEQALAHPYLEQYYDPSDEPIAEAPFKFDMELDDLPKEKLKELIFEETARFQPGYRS
T1 sequence (P27361 whole entry): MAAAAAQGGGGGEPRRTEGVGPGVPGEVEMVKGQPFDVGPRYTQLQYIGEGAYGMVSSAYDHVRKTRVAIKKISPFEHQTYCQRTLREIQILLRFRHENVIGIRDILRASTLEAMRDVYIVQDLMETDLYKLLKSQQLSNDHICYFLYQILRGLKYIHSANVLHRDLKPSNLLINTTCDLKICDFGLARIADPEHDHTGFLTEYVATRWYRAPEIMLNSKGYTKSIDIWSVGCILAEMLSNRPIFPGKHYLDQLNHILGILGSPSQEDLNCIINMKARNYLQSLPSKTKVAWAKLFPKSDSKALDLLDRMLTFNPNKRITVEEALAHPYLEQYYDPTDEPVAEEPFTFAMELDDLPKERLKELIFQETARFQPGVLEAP

`CC[C@@H](CO)Nc1cc(-n2cnc(C(=O)NC(CO)c3cccc(Cl)c3)c2)ccn1` (stereo partly drawn) [Compound 105, N-(1-(3-chlorophenyl)-2-hydroxyethyl)-1-(2-(((S)-1-hydroxybutan-2-yl)-amino)pyridin-4-yl)-1H-imidazole-4-carboxamide]: the IC50 was at most 50 nM against ERK1; 100 to 250 nM in test [1]; above 2500 nM in test [2]; at most 50 nM against ERK2; above 2500 nM in test [3].
Take `Cc1cnc(Nc2ccc(Oc3ccccc3)cc2)nc1-n1cnc(C(=O)N[C@H](CO)c2cccc(Cl)c2)c1` [Example 250, N-(1-(3-chlorophenyl)-2-hydroxyethyl)-1-(5-methyl-2-((4-phenoxyphenyl)-amino)pyrimidin-4-yl)-1H-imidazole-4-carboxamide]: the figures for the IC50 at ERK1 and at ERK2 were 500 to 2500 nM and 100 to 500 nM, respectively.
Compound `Cc1cnc(Nc2ccc3c(c2)OC(F)(F)O3)cc1-n1cc(C(=O)NC(CN)Cc2ccccc2)nn1` (centres unmarked) [Compound 134] registered an IC50 against ERK2 of 500 to 2500 nM.
`Cc1cnc(NC(C)C2CCOCC2)nc1-n1cnc(C(=O)N[C@H](CO)c2cccc(Cl)c2)c1` (some centres unmarked) [Example 239]: the IC50 on ERK1 is at most 50 nM; in test [1] it was 500 to 2500 nM; in test [2] it was above 2500 nM; against ERK2, at most 50 nM.
`Cc1cnc(N[C@H]2CCOC2)nc1-n1cnc(C(=O)N[C@H](CN)c2cc(F)cc(Cl)c2)c1` [Example 282, N-(2-amino-1-(3-chloro-5-fluorophenyl)ethyl)-1-(5-methyl-2-(((S)-tetrahydrofuran-3-yl)amino)pyrimidin-4-yl)-1H-imidazole-4-carboxamide]: the IC50 was at most 50 nM against ERK1; at most 100 nM in test [1]; at most 100 nM in test [2]; at most 50 nM against ERK2; at most 100 nM in test [3].
